Like-named read-outs stand apart in the source and are kept apart here. Marks after values point to notes of the source that are not given here.

The target in test [1] is HLA-A*68:01 (Homo sapiens, UniProt P04439, A269V/D185E/E176V/E277Q/E87N/F33Y/G231S/I121M/I166T/I218V/L180W/L300P/L318F/N151K/P208A/P217A/Q86R/R169H/T345S). The format is binding. To be noted: percent relative the binding of positive control peptide […]; duplicated experiments; positive binder >40%.
The target in test [2] is T1, HLA-B*58:01 (Homo sapiens, UniProt P01889, A329T/C349S/D201E/D98Y/E176V/E187L/E204Q/E69T/G107R/I218V/I90N/K202T/L105A/L119I/N104I/N87E/Q89R/Q94S/R106L/R155S/R180L/R86G/S101N/S121R/S35A/S48A/T118I/V127L/V306I/V36M/Y140S/Y91M). It counts as binding. To be noted: percent relative the binding of positive control peptide […]; duplicated experiments; positive binder >40%.
In test [3] the target is T1, HLA-B*58:01. The format is binding.
Test [4] addresses T1, HLA-B*58:01. It counts as binding. The settings on record: time points 0-8 h.
Test [5] concerns the target T2, HLA-C*07:01 (Homo sapiens, UniProt P10321, K90N/S123Y). It counts as binding. To be noted: percent relative the binding of positive control peptide […]; duplicated experiments; positive binder >40%.
The target in test [6] is T2, HLA-C*07:01. Kind of test: affinity assay (ED50). The format is binding.
Test [7] addresses T2, HLA-C*07:01. Kind of test: off-rate assay (t1/2). It counts as binding. The settings on record: time points 0-8 h.
Test [8] concerns the target T3, HLA-A*02:01 (Homo sapiens, UniProt P04439, D140Y/D185E/D98H/E176V/E277Q/G131W/G231S/I119V/I121R/I166T/I218V/L300P/L318F/N151K/N90K/P208A/P217A/Q86G/Q94H/R138H/R169H/T345S). To be noted: cited from earlier work.
For test [9], the target named is T3, HLA-A*02:01. To be noted: cited from earlier work. This is another data set of the same source.
The target of test [10] is T3, HLA-A*02:01. To be noted: cited from earlier work. This is another data set of the same source.
Test [11] concerns the target T4, HLA-A*24:02 (Homo sapiens, UniProt P04439, D101N/D140Y/D185E/E176V/E190D/F33S/G103R/G107R/I119L/I121M/I306V/K335N/L105A/L180Q/L300P/N151K/N90K/Q86E/Q94H/R106L/R138H/R89G/T104I/T345S/V100E/W191G/Y123F). To be noted: percent relative the binding of a positive control peptide; […]; cited from earlier work.
The target of test [12] is T4, HLA-A*24:02. The settings on record: cited from earlier work.
Test [13] has as its target T4, HLA-A*24:02. The settings on record: cited from earlier work. This is another data set of the same source.
For test [14], the target named is T5, HLA-A*30:01 (Homo sapiens, UniProt P04439, D140H/D185E/E176W/F33S/G80R/H175R/K168Q/R138E/R41S). The settings on record: cited from earlier work.
Test [15] addresses T5, HLA-A*30:01. To be noted: cited from earlier work. This is another data set of the same source.
Test [16] addresses T5, HLA-A*30:01. The settings on record: cited from earlier work. This is another data set of the same source.
The target in test [17] is T6, HLA-A*30:02 (Homo sapiens, UniProt P04439, D101N/D140H/D185E/E176R/F33S/G80R/H175R/K168Q/Q94H/R138E/R41S/V100E). To be noted: cited from earlier work.
Test [18] addresses T6, HLA-A*30:02. To be noted: cited from earlier work. The source holds these as a separate data set.
Test [19] deals with T6, HLA-A*30:02. The settings on record: cited from earlier work. This is another data set of the same source.
Test [20] addresses T7, HLA-B*07:02 (Homo sapiens, UniProt P01889). To be noted: cited from earlier work.
In test [21] the target is T7, HLA-B*07:02. The settings on record: cited from earlier work. This is another data set of the same source.
In test [22] the target is T7, HLA-B*07:02. The settings on record: cited from earlier work. The source holds these as a separate data set.
[23] abbreviates: percent relative the binding of a positive control peptide, […].

As for IMYNYPAML [Rv0288_4–12], in test [1], the “Bind A*68:01” value stood at 0%. Also, the “Bind B*58:01” value in [2] was 110%. Besides, the “Aff B*58:01 (ED50)” value in test [3] turned out to be 200 nM. For the same sequence, in test [4], the “O-rate B*58:01 (t1/2)” value is on record as 1.0 h. Moreover, the “Bind C*07:01” value in test [5] amounted to 67%. Moreover, the “Aff C*07:01 (ED50)” value in [6] is 200 nM. Further, the “O-rate C*07:01 (t1/2)” value in [7] amounted to 0.2 h. Further, the “Bind A*02:01” value in test [8] (setting [23]) was 94* percent. Further, the “Aff A*02:01 (ED50)” value in test [9] is 800 nM. Moreover, the “O-rate A*02:01 (t1/2)” value in [10] was 26.9 h. In addition, the “Bind A*24:02” value in test [11] is reported as 107* percent. Also, the “Aff A*24:02 (ED50)” value in test [12] is 100 nM. Also, the “O-rate A*24:02 (t1/2)” value in [13] is on record as 1.6 h. Moreover, the “Bind A*30:01” value in test [14] (setting [23]) is listed as 146** percent. Further, in test [15], the “Aff A*30:01 (ED50)” value was 5000 nM. In addition, the “O-rate A*30:01 (t1/2)” value in test [16] is 0.5 h. For the same sequence, in test [17], the “Bind A*30:02” value is 91** percent. Further, the “Aff A*30:02 (ED50)” value in [18] is 8 nM. For the same sequence, the “O-rate A*30:02 (t1/2)” value in test [19] is 3.1 h. In test [20] (setting [23]), the “Bind B*07:02” value is 35* percent. Moreover, in [21], the “Aff B*07:02 (ED50)” value is 30000 nM. Further, in [22], the “O-rate B*07:02 (t1/2)” value is 1.6 h.

For the sequence QIMYNYPAM [Rv0288_3–11wt], the “Bind B*58:01” value in [2] amounted to 34%. Besides, the “Aff B*58:01 (ED50)” value in [3] was 10000 nM. Also, the “O-rate B*58:01 (t1/2)” value in [4] is given as 0.4 h. In addition, the “Bind A*02:01” value in test [8] is listed as 68* percent. Moreover, the “Aff A*02:01 (ED50)” value in test [9] is 1000 nM. Besides, the “O-rate A*02:01 (t1/2)” value in [10] is reported as 1.1 h. Besides, the “Bind A*24:02” value in [11] is recorded as 55* percent. Moreover, in test [12], the “Aff A*24:02 (ED50)” value was 1000 nM. In test [13], the “O-rate A*24:02 (t1/2)” value is on record as 0.1 h. For the same sequence, the “Bind A*30:01” value in test [14] was 163** percent. Further, the “Aff A*30:01 (ED50)” value in test [15] was 4000 nM. Besides, the “O-rate A*30:01 (t1/2)” value in test [16] was 0.8 h. Besides, the “Bind A*30:02” value in [17] (setting [23]) is listed as 90** percent. The “Aff A*30:02 (ED50)” value in test [18] was 40 nM. The “O-rate A*30:02 (t1/2)” value in [19] is 1.1 h. The “Bind B*07:02” value in [20] is reported as 28* percent. Also, the “Aff B*07:02 (ED50)” value in test [21] is 800000 nM. Besides, the “O-rate B*07:02 (t1/2)” value in test [22] was 1.5 h.

Source of the values: PMC3608651, “A Broad Profile of Co-Dominant Epitopes Shapes the Peripheral Mycobacterium tuberculosis Specific CD8+ T-Cell Immune Response in South African Patients with Active Tuberculosis” (PLoS ONE, 2013).
